From US20040176357A1, “2 Methyl-thieno-benzodiazepine lyophilized formulation” (priority 2001, published 2004)

Key:
[1] = solubility in parenteral diluents; conditions: parenteral diluents suitable for injection
[2] = rate of absorption after parenteral versus oral administration; type: in vivo; conditions: such as IM, versus oral administration of the same dose
Protocol: Intramuscular injection is the preferred mode of delivery to the mammal being treated particularly in emergency situations. […] Preferably the lyophilized pharmaceutical formulation of this invention is diluted with aqueous solvent suitable for injection and a liquid unit dosage form prepared for administration to a mammal.

Structure (SMILES)	solubility in parenteral diluents [1]	rate of absorption [2]
Cc1cc2c(s1)Nc1ccccc1N=C2N1CCN(C)CC1 [Form II]	does not readily dissolve	–
Cc1cc2c(s1)Nc1ccccc1N=C2N1CCN(C)CC1 [olanzapine, 2-methyl-4-(4-methyl-1-piperazinyl)-10H-thieno[2,3-b][1,5]benzodiazepine]	relatively insoluble	more rapid
